ChEMBL document CHEMBL1158714, “Communiols E-H: new polyketide metabolites from the coprophilous fungus Podospora communis” (J Nat Prod, 2005)
Active and inactive are the calls of the source.

Assays:
Assay type in all cases: functional, organism-based
[1] = system: Candida albicans; test: Antimicrobial activity against Candida albicans ATCC 90029 at 200 ug/disk
[2] = system: Staphylococcus aureus; test: Antimicrobial activity against Staphylococcus aureus ATCC 29213 at 200 ug/disk
[3] = system: Bacillus subtilis; test: Antimicrobial activity against Bacillus subtilis ATCC 6051 at 200 ug/disk

Measured: Activity

CC[C@H](O)[C@@H]1C[C@H]2CC[C@H](CO)[C@H]2O1
inactive: all assays above

CC[C@@H]1O[C@H]1C[C@H]1CC=C(CO)[C@H]1O
inactive: all assays above

CC[C@H](O)[C@@H]1C[C@H]2CC=C(CO)[C@H]2O1
inactive: all assays above

CC[C@H](O)[C@@H]1C[C@@H](C/C=C/C=O)C(=O)O1
inactive: all assays above
